According to publication PMC6791832, “In vitro inhibition of human red blood cell acetylcholinesterase (AChE) by temephos-oxidized products” (Scientific Reports, 2019):

Legend:
[1] = molecular target: T1, human red blood cell acetylcholinesterase (RBC AChE) (Homo sapiens, UniProt P22303); assay: Human RBC AChE inhibition assay (Ellman method, hemolyzed whole blood); assay type: biochemical; conditions: for IC50: hemolyzed samples preincubated with compound for 15 min at 37 °C, three independent experiments in duplicate
T1 construct: from tissue; host or cells: whole blood (hemolyzed, 1:100 in Triton X-100) from one healthy adult volunteer
Procedure: RBC AChE and BuChE assays were performed on whole human blood and serum, respectively. In this study, all methods were conducted in accordance with guidelines and regulations to comply with the GLP and chemical wastes management established by the Cinvestav-IPN. The sampling protocol was approved by the Bioethics Commission of Nayarit State, Mexico (CEBN/011/2017). The subject gave written informed consent for their participation and blood samples were collected early in the morning. A human blood sample was collected from a healthy adult volunteer from Mexico City.
RBC AChE activity was evaluated according to the method reported by Ellman et al.[12] with some modifications. Briefly, fresh human whole blood samples were diluted (1:100) with Triton X-100 (0.03% in phosphate buffer 0.1 M, pH 7.4). The enzymatic assay media consisted of 500 µL diluted blood, 1 mL of phosphate buffer 0.1 M, pH 7.4, 0.05 mL of DTNB (10 mM), and 5 µL of ethopropazine (6 mM), which were mixed and incubated at 37 °C for 10 min. The reaction was started by the addition of 25 µL of substrate ATCh (28.3 mM) and absorbance was monitored at 436 nm during 3 min with a UV-Vis spectrophotometer (Thermo Scientific GENESYS 10S). AChE activity was corrected for hemoglobin (Hb) content and was reported in U/g Hb. The Hb content was determined at 540 nm using the Drabkin reagent. The molar extinction coefficient of the TNB hydrolysis product was ε = 10,600 M^−1 cm^−1.
To determine the inhibitory effect on human RBC AChE activity, the hemolyzed samples were preincubated with Tem and its metabolites for 15 min at 37 °C. The RBC AChE activity was evaluated as previously described by Bernal-Hernández et al.[13] in three independent experiments conducted in duplicate. Stock solutions of Tem metabolites were individually prepared in ethanol (Tem-SO, 4.14 mM; Tem-dox-SO, 4.44 mM, and Tem-dox-SO2, 4.20 mM). These solutions were used to prepare other diluted solutions in phosphate buffer (0.1 M, pH 7.4) to achieve the following concentrations: 0.1 to 10 μM Tem-SO, 0.05 to 5 μM Tem-dox-SO, and 0.02 to 2 μM Tem-dox-SO2. […] Log IC50, IC50, and R^2 values were estimated from the normalized AChE or BuChE activity with respect to the control assays (absence of the metabolite) and plotted as a function of the logarithm of metabolite concentration using Prism 8 software (GraphPad Software).

[2] = rats, orally administered; cited from earlier work

T1 sequence (P22303 32-617 isoform P22303-2 limits assumed): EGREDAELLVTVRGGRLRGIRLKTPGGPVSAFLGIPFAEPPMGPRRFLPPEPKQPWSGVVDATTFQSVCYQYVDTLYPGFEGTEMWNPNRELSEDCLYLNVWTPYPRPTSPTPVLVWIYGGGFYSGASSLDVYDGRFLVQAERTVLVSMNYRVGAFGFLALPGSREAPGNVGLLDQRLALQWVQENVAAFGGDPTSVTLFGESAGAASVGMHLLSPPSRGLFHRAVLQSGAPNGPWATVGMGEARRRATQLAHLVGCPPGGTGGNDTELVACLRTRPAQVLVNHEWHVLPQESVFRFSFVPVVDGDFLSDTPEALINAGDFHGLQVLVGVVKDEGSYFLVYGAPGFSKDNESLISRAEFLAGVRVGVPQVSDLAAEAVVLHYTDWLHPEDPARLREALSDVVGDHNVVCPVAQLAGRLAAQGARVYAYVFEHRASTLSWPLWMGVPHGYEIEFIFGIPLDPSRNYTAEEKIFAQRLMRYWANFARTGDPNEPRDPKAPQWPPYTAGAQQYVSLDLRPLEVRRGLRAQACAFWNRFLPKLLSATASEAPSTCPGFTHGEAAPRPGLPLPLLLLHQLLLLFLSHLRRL

SMILES | effect on human RBC AChE activity ([1]; even at higher concentrations than 50 µM) | absorbed into the bloodstream [2] | IC50 [1]
COP(=S)(OC)Oc1ccc(Sc2ccc(OP(=S)(OC)OC)cc2)cc1 [Tem, O,O,O′,O′-tetramethyl O,O′-thiodi-p-phenylene bis(phosphorothionate)] | did not exhibit any effect | at least 40% | 
COP(=S)(OC)Oc1ccc([S+]([O-])c2ccc(OP(=S)(OC)OC)cc2)cc1 [Tem-SO] |  |  | 553 nM
COP(=O)(OC)Oc1ccc(S(=O)(=O)c2ccc(OP(=O)(OC)OC)cc2)cc1 [Tem-dox-SO2] |  |  | 24.9 nM
COP(=O)(OC)Oc1ccc([S+]([O-])c2ccc(OP(=O)(OC)OC)cc2)cc1 [Tem-dox-SO] |  |  | 97.7 nM
